# Measurements from PMC9936582, “Sulfamate Acetamides as Self-Immolative Electrophiles for Covalent Ligand-Directed Release Chemistry” (Journal of the American Chemical Society, 2023).
# System: Mino cells
# Assay: Competitive pull-down proteomics with ibrutinib alkyne probe in Mino cells
# Format: cell-based, human
# Settings: 1 µM compound 1 h
# Description: (10 μM). This was followed by a reaction with biotin-azide using CuAAC, enrichment of the labeled proteins, and their quantification by tryptic digestion and LC/MS/MS analysis.
# The samples were then precipitated with methanol: chloroform (1 mL of methanol, 250 μL of chloroform, and 750 μL of water), washed with 1 mL of methanol, and air-dried. The samples were solubilized and bound to streptavidin agarose beads in PBS for 3 h at 25 °C. The beads were washed, centrifuged, and resuspended in Tris 50 mM pH 8 and transferred to a clean Eppendorf tube. After this, the bound proteins were eluted by boiling with 5% SDS then reduced with DTT, alkylated with iodoacetamide, and digested with trypsin. The samples were run on LC/MS/MS. The detailed procedure is available in the Supplementary Information. The mass spectrometry proteomics data have been deposited to the ProteomeXchange Consortium via the PRIDE[67] partner repository with the dataset identifiers PXD038301 and PXD038375.
# 400 µL of 0.1% IGEPAL/PBS were added, and the beads were washed 3 times with 0.1% IGEPAL/PBS, 3 times PBS and 3 times water. The peptides were eluted by incubation with 200 µL of 50% acetonitrile + 0.1% TFA for 5 min, followed by two more portions of 100 µL of 50% acetonitrile + 0.1% TFA. The samples were dried by speedvac, and further purified using Oasis desalting columns (Waters), after which they were dried and run on the instrument.
# Pull-down samples preparation […]
# incubation with 10 μM “probe 4” for another hour. The samples were prepared in quadruplicates. The cells were washed with cold PBS, from the flasks and frozen. Then, each sample was lysed in 200 μL of […]
# The protein in the supernatant was quantified using BCA. For each sample, 250 μL of 1.7 mg/mL was prepared. At this point, 5 μL of 5 mM biotin azide and 9 μL of 100 mM CuSO4/THPTA complex were added. The click reaction was initiated by the addition of 7.5 μL of 150 mM sodium ascorbate, and the samples are incubated at room temperature for 1 h. The samples were then precipitated with methanol/chloroform (1 mL methanol, 250 μL chloroform, 750 μL water), washed with 1 mL of methanol, and air-dried. […]
# and heated to 95 °C for 5 min. The samples were then diluted to 1.5 mL with PBS, and 50 μL of streptavidin agarose beads, prewashed with 0.2% SDS in PBS, was added, followed by 3 h incubation at room temperature. Following the incubation, the beads were centrifuged at 2000g for 2 min and washed four times with the following buffers (4 mL in each wash): 2% SDS; 0.1% sodium deoxycholate, 1% Triton X-100, 0.5 M NaCl, 1 mM EDTA, 50 mM HEPES pH = 7.5; 0.25 M NaCl, 0.5% IGEPAL, 0.5% sodium deoxycholate, 1 mM EDTA, 10 mM Tris pH = 8.1; 50 mM Tris pH = 7.4, 50 mM NaCl. […]
# with heating to 95 °C for 6 min and occasional vortexing. Finally, the beads were spun down (2 min 2000g) and 80 μL of supernatant was removed to separate tubes. […]
# had cooled, 4 μL of iodoacetamide (0.2 M) were added, and the samples were incubated in the dark for 40 min at room temperature. […]
# samples were diluted 6-fold with 90% methanol + 50 mM ammonium bicarbonate. The samples were then […]
# loaded on S-trap micro columns (Protify), and the columns were washed three times with 150 μL of 90% methanol + 50 mM ammonium bicarbonate. Then, 20 μL of 0.05 μg/μL of trypsin in 50 mM ammonium bicarbonate was added to the columns and the samples were incubated at 47 °C for 90 min. Then, 40 μL of 50 mM ammonium bicarbonate was added, followed by centrifugation and addition of 1 μL of 0.5 μg/μL trypsin to the eluate, which was incubated at 37 °C overnight. The column itself was then eluted using 40 μL of 0.2% formic acid and 40 μL 0.2% formic acid in 50% acetonitrile into a separate tube, which was kept at 4 °C. The two eluates were then combined and evaporated. The samples were further desalted using […]
smiles,measurement,setting,value
Nc1ncnc2c1c(-c1ccc(Oc3ccccc3)cc1)nn2[C@@H]1CCCN(C(=O)COS(=O)(=O)NCc2ccccc2)C1 [3d],Log2(Fold Change),4F2_HUMAN,-0.3468
same,Log2(Fold Change),AATM_HUMAN,1.62
same,Log2(Fold Change),ACSF3_HUMAN,0.1421
same,Log2(Fold Change),AHNK_HUMAN,2.176
same,Log2(Fold Change),ALG1_HUMAN,-0.2223
same,Log2(Fold Change),ANXA1_HUMAN,2.107
same,Log2(Fold Change),APEX1_HUMAN,0.5549
same,Log2(Fold Change),ARP3_HUMAN;ARP3B_HUMAN;ARP3C_HUMAN,0.3683
same,Log2(Fold Change),AT1A1_HUMAN;AT1A2_HUMAN;AT1A4_HUMAN;ATP4A_HUMAN;AT12A_HUMAN,0.9797
same,Log2(Fold Change),ATP5H_HUMAN,0.3377
same,Log2(Fold Change),ATPK_HUMAN,0.2949
same,Log2(Fold Change),ATPO_HUMAN,-0.283
same,Log2(Fold Change),ATX10_HUMAN,0.3503
same,Log2(Fold Change),BST2_HUMAN,0.9798
same,Log2(Fold Change),BZW1_HUMAN,0.5267
same,Log2(Fold Change),C1TM_HUMAN,-0.1466
same,Log2(Fold Change),CALL5_HUMAN,-0.1469
same,Log2(Fold Change),CD20_HUMAN,-0.02247
same,Log2(Fold Change),CD38_HUMAN,0.01573
same,Log2(Fold Change),CLCA_HUMAN,-0.02966
same,Log2(Fold Change),CLH1_HUMAN;CLH2_HUMAN,2.15
same,Log2(Fold Change),COX2_HUMAN,-0.2094
same,Log2(Fold Change),CRERF_HUMAN,-0.7334
same,Log2(Fold Change),DD19B_HUMAN;DD19A_HUMAN,-0.05233
same,Log2(Fold Change),DDX3X_HUMAN;DDX3Y_HUMAN;DDX4_HUMAN,1.382
same,Log2(Fold Change),DNJC7_HUMAN,0.6525
same,Log2(Fold Change),DSC1_HUMAN,-0.7969
same,Log2(Fold Change),EF1B_HUMAN,-0.6176
same,Log2(Fold Change),EPIPL_HUMAN,0.9511
same,Log2(Fold Change),FPPS_HUMAN,-0.6242
same,Log2(Fold Change),GCR_HUMAN,0.4122
same,Log2(Fold Change),GLYM_HUMAN;GLYC_HUMAN,1.206
same,Log2(Fold Change),GSDMA_HUMAN,0.09253
same,Log2(Fold Change),HMCS1_HUMAN,0.6183
same,Log2(Fold Change),HXK2_HUMAN;HXK3_HUMAN,0.4444
same,Log2(Fold Change),IF4A1_HUMAN,0.3836
same,Log2(Fold Change),IF4A3_HUMAN,0.3127
same,Log2(Fold Change),IF4H_HUMAN,0.66
same,Log2(Fold Change),IGLL5_HUMAN;IGL1_HUMAN;IGLC1_HUMAN,-2.924
same,Log2(Fold Change),LAPM5_HUMAN,0.7164
same,Log2(Fold Change),LAT1_HUMAN,-0.2987
same,Log2(Fold Change),LMNA_HUMAN,1.21
same,Log2(Fold Change),MATR3_HUMAN,1.3535
same,Log2(Fold Change),MBB1A_HUMAN,0.0529
same,Log2(Fold Change),MCCA_HUMAN,-0.3018
same,Log2(Fold Change),MIC19_HUMAN,0.1905
same,Log2(Fold Change),MP2K7_HUMAN,1.5282
same,Log2(Fold Change),NCEH1_HUMAN,1.226
same,Log2(Fold Change),NT5D1_HUMAN,2.611
same,Log2(Fold Change),NUCL_HUMAN,0.5701
same,Log2(Fold Change),OTUB1_HUMAN,0.2048
same,Log2(Fold Change),P121C_HUMAN;P121A_HUMAN,0.4168
same,Log2(Fold Change),PARK7_HUMAN,1.57
same,Log2(Fold Change),PCKGM_HUMAN,0.1766
same,Log2(Fold Change),PEBP1_HUMAN,-0.8247
same,Log2(Fold Change),PEPL_HUMAN,0.8796
same,Log2(Fold Change),PFKAL_HUMAN,-0.4948
same,Log2(Fold Change),PGK1_HUMAN;PGK2_HUMAN,0.5127
same,Log2(Fold Change),PIP_HUMAN,0.8481
same,Log2(Fold Change),PLAK_HUMAN;CTNB1_HUMAN,-0.4311
same,Log2(Fold Change),POF1B_HUMAN,0.5955
same,Log2(Fold Change),PSA3_HUMAN,0.515
same,Log2(Fold Change),PSB8_HUMAN,0.8443
same,Log2(Fold Change),RAB1A_HUMAN;RAB1B_HUMAN;RAB1C_HUMAN,0.5794
same,Log2(Fold Change),RANG_HUMAN;IPKB_HUMAN,-0.3375
same,Log2(Fold Change),RAP1B_HUMAN;RAP1A_HUMAN;RP1BL_HUMAN;RAB3D_HUMAN,0.1236
same,Log2(Fold Change),RFTN1_HUMAN,0.055
same,Log2(Fold Change),RL13A_HUMAN;R13P3_HUMAN,0.2889
same,Log2(Fold Change),RL18_HUMAN,0.278
same,Log2(Fold Change),RLA1_HUMAN,1.604
same,Log2(Fold Change),RN3P2_HUMAN,-0.7545
same,Log2(Fold Change),RS28_HUMAN,1.706
same,Log2(Fold Change),RTN4_HUMAN,-0.003108
same,Log2(Fold Change),RUVB2_HUMAN,0.8199
same,Log2(Fold Change),S38A1_HUMAN,0.5709
same,Log2(Fold Change),S61A1_HUMAN;S61A2_HUMAN,0.03923
same,Log2(Fold Change),SAE2_HUMAN,0.8525
same,Log2(Fold Change),SATT_HUMAN,-0.2942
same,Log2(Fold Change),SCRB1_HUMAN,0.8748
same,Log2(Fold Change),SIAT1_HUMAN,0.1522
same,Log2(Fold Change),SO4A1_HUMAN,1.533
same,Log2(Fold Change),SPB4_HUMAN,2.369
same,Log2(Fold Change),SPB12_HUMAN,-0.3346
same,Log2(Fold Change),SSDH_HUMAN,1.965
same,Log2(Fold Change),SUCB1_HUMAN,0.8691
same,Log2(Fold Change),TAP1_HUMAN,-1.533
same,Log2(Fold Change),TAP2_HUMAN;ABCB8_HUMAN;ABCBA_HUMAN,0.8469
same,Log2(Fold Change),TBB2B_HUMAN;TBB2A_HUMAN,-0.1459
same,Log2(Fold Change),TSN_HUMAN,-0.1715
same,Log2(Fold Change),TX264_HUMAN,0.3926
same,Log2(Fold Change),UB2V2_HUMAN;UB2V1_HUMAN,1.306
same,Log2(Fold Change),UBP5_HUMAN,-0.01896
same,Log2(Fold Change),UBP14_HUMAN,1.116
same,Log2(Fold Change),URP2_HUMAN,0.2486
same,Log2(Fold Change),USMG5_HUMAN,0.3682
same,Log2(Fold Change),VDAC1_HUMAN,0.3637
same,Log2(Fold Change),VEZA_HUMAN,-0.126
same,Log2(Fold Change),XPO2_HUMAN,0.1341
same,Log2(Fold Change),XPO5_HUMAN,0.1456
same,Log2(Fold Change),ZDHC8_HUMAN,-1.527
